Assay [1] deals with T1, hCTR (Homo sapiens, UniProt P30988).
T1 sequence (P30988 25-474): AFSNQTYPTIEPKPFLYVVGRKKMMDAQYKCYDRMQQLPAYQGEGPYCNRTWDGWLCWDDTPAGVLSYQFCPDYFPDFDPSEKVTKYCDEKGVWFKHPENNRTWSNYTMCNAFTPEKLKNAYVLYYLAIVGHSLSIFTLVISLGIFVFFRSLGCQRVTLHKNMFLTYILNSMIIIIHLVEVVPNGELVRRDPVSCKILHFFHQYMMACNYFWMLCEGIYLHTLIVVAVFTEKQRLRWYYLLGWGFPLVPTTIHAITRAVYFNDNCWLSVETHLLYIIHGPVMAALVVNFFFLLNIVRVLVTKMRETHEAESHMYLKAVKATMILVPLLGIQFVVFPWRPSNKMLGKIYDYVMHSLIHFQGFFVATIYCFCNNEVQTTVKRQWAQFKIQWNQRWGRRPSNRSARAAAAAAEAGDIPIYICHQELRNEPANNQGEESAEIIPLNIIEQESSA
The assay can be described thus: scintillation proximity binding assay, hCTR membranes. Also on record: expressed in transfected cells; host or cells: BHK tk-ts 13, transient (FuGENE 6); membranes for the SPA, whole cells for the species-specific assays. How it is done: (§1) The apparent binding affinities were determined using a scintillation proximity assay with beads from PerkinElmer and cell membranes containing the AMY3R or CTRs. […] Membranes were harvested and membranes were prepared and kept at −80 °C until use. The assay was performed in a 384-well Optiplate (PerkinElmer). Membranes were mixed with scintillation proximity assay beads in a 1:1 ratio. […] Samples were analyzed on a TopCounter (Packard). The IC50 values were calculated using GraphPad Prism. See Supporting Information S7: SAR Screening Assay Methods (Binding Assays (Human and Rat)) for more information.
(§2) Binding Assays (Human and Rat). Brief descriptions of the methods used to determine binding affinities for SAR analysis are described below. Curves and IC50 values were plotted and calculated in GraphPad Prism using nonlinear regression (one site binding competition analysis), with pIC50 values […]
(§3) values were used to calculate the binding affinity ratios in order to express the selectivity of compounds for the AMY3R versus the CTR.
(§4) CTR Binding Assay. The binding assay was performed using scintillation proximity assay (SPA) beads (RPNQ0001) from PerkinElmer and cell membranes containing either the hCTR or rCTR. BHK […]
(§5) Membranes were prepared in the following way: the cells were rinsed with PBS and incubated with Versene for approximately 5 min before harvesting. The cells were flushed with PBS and the cell-suspension was centrifuged for 5 min at 1000 rpm. Cells were homogenized (Ultra Turrax) in a buffer […]
(§6) containing 20 mM Na-HEPES and 0.1 mM EDTA (pH 7.4, buffer 2). The resulting pellet was re-suspended in buffer 2 and protein concentration was measured (BCA protein assay, Pierce). The homogenate was kept cold during the whole procedure. The membranes were stored at –80 °C until […]
(§7) The binding assay was performed in a 384-well Optiplate (PerkinElmer) in a total volume of 40 μL.
(§8) Membranes were mixed with SPA beads in a 1:1 ratio. […]
(§9) mg/well. Test compounds were dissolved in DMSO and further diluted in assay buffer (50 mM HEPES, pH 7.4, 1 mM CaCl2, 5 mM MgCl2, 0.1% ovalbumin, and 0.02% Tween-20).
(§10) Calcitonin (NEX422 PerkinElmer) was dissolved in assay buffer and added to the Optiplate at a final […]
(§11) prior to centrifugation (1500 rpm, 10 min). Samples were analyzed on TopCounter (Packard).
In general terms: Scintillation proximity formats need no separation of bound from free tracer.

The target of assay [2] is T1, hCTR. The assay can be described thus: cAMP-responsive element luciferase reporter assay, human CTR. Type of assay: cell-based. Conditions: luciferase (human receptor assay).
The target of the next assay is T2, rCTR (Rattus norvegicus, UniProt P32214).
T2 construct: expressed in transfected cells; host or cells: BHK tk-ts 13, transient (FuGENE 6)
T2 sequence (P32214 25-479 isoform P32214-2 limits assumed): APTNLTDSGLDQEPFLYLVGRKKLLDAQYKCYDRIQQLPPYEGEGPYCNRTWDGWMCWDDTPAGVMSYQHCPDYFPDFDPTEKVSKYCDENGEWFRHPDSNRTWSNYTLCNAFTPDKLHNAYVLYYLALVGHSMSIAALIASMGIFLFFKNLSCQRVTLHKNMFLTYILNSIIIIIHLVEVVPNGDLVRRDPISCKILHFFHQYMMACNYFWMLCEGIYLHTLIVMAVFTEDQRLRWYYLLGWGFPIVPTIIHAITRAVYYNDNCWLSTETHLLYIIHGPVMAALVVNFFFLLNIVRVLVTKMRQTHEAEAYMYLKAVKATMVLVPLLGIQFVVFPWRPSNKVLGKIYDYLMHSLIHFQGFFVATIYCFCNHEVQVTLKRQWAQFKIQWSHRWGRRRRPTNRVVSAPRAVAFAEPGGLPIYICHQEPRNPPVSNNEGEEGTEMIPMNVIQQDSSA
The assay can be described thus: scintillation proximity binding assay, rCTR membranes. How it is done: as §1, §2, §3, §4, §5, §6, §7, §8, §9, §10, §11

A further assay deals with rats. Briefly: Acute food intake in rats. The note with it: single sc injection of 30 nmol/kg, relative to vehicle, mean ± SEM, n = 5–7 per group. It counts as in vivo, rat.
The mark [3] stands for this setting: SPA binding assay, Tables S13 and S15.
The mark [4] stands for this setting: Tables S12 and S14, read-out: hCTR pEC50 (converted).
Where [5] appears, read: BHK cells stably expressing hCTR and CRE-luciferase, 3 h, 37 °C, 10% FBS, read-out: hCTR EC50.

Read-outs that look alike come from different tables or passages of the source. Numbered stars: 1 amine (or outer) side, 2 acyl side, 3 side chain; on linkers, the order of the positions; unused ones are H or OH. Bridge positions count the residues as written; N and C are the ends. Side chains are listed from the residue outwards. Peptide text beside a SMILES is read from it. * marks the point of attachment. C20 diacid = O=C(O)CCCCCCCCCCCCCCCCCCC(=O)*; γGlu = O=C(O)[C@H](CCC(=O)[*:2])N[*:1]; AEEA = NCCOCCOCC(=O)O

For `CC[C@H](C)[C@H](NC(=O)[C@H](C)NC(=O)CNC(=O)[C@H](Cc1ccccc1)NC(=O)[C@H](CC(N)=O)NC(=O)[C@@H]1CCCN1C(=O)[C@H](CO)NC(=O)[C@H](CO)NC(=O)[C@H](Cc1c[nH]cn1)NC(=O)[C@H](CCCNC(=N)N)NC(=O)[C@H](CC(C)C)NC(=O)[C@H](Cc1ccccc1)NC(=O)[C@H](CC(N)=O)NC(=O)[C@H](C)NC(=O)[C@H](CC(C)C)NC(=O)[C@H](CCCNC(=N)N)NC(=O)[C@H](CCC(N)=O)NC(=O)[C@@H](NC(=O)[C@H](C)NC(=O)[C@@H]1CSSC[C@H](NC(=O)[C@H](CCCCN)NC(=O)CC[C@H](NC(=O)CCCCCCCCCCCCCCCCCCC(=O)O)C(=O)O)C(=O)N[C@@H](CC(N)=O)C(=O)N[C@@H]([C@@H](C)O)C(=O)N[C@@H](C)C(=O)N[C@@H]([C@@H](C)O)C(=O)N1)[C@@H](C)O)C(=O)N1CCC[C@H]1C(=O)N[C@@H](CO)C(=O)N[C@@H](CO)C(=O)N[C@H](C(=O)N[C@@H](CC(N)=O)C(=O)N[C@H](C(=O)NCC(=O)N[C@@H](CCCNC(=N)N)C(=O)N[C@@H](CC(N)=O)C(=O)N[C@H](C(=O)N[C@@H](Cc1ccc(O)cc1)C(N)=O)[C@@H](C)O)C(C)C)[C@@H](C)O` [Peptide 16], the “hCTR pIC50” value at hCTR [1] (setting [3]) is 7.71. On hCTR [2] (Tables S12 and S14), the “hCTR pEC50” value is on record as 8.60. Also, the “rCTR pIC50” value on rCTR (setting [3]) stood at 7.02. Moreover, in the assay on rats, the “Acute food intake reduction 0–24 h” value was 32 ± 4% and the “Acute food intake reduction 24–48 h” value is 4 ± 5%.

Turning to `CC[C@H](C)[C@H](NC(=O)[C@@H]1CCCN1C(=O)CNC(=O)[C@H](Cc1ccccc1)NC(=O)[C@H](CC(N)=O)NC(=O)[C@@H]1CCCN1C(=O)[C@H](CO)NC(=O)[C@H](CO)NC(=O)[C@H](Cc1c[nH]cn1)NC(=O)[C@H](CCCNC(=N)N)NC(=O)[C@H](CC(C)C)NC(=O)[C@H](Cc1ccccc1)NC(=O)[C@H](CC(=O)O)NC(=O)[C@H](C)NC(=O)[C@H](CC(C)C)NC(=O)[C@H](CCCNC(=N)N)NC(=O)[C@H](CCC(N)=O)NC(=O)[C@@H](NC(=O)[C@H](C)NC(=O)[C@@H]1CSSC[C@H](NC(=O)[C@@H](N)CCCCNC(=O)CC[C@H](NC(=O)CC[C@H](NC(=O)CCCCCCCCCCCCCCCCCCC(=O)O)C(=O)O)C(=O)O)C(=O)N[C@@H](CC(N)=O)C(=O)N[C@@H]([C@@H](C)O)C(=O)N[C@@H](C)C(=O)N[C@@H]([C@@H](C)O)C(=O)N1)[C@@H](C)O)C(=O)N[C@@H](CC(C)C)C(=O)N[C@@H](CO)C(=O)N[C@@H](CO)C(=O)N[C@H](C(=O)N[C@@H](CC(N)=O)C(=O)N[C@H](C(=O)NCC(=O)N[C@@H](CO)C(=O)N[C@@H](CC(=O)O)C(=O)N[C@H](C(=O)N[C@@H](Cc1ccc(O)cc1)C(N)=O)[C@@H](C)O)C(C)C)[C@@H](C)O` [Peptide 3] (H-K([γGlu-γGlu-C20 diacid])CNTATCATQRLADFLRHSSPNFGPILSSTNVGSDTY-NH2; disulfide 2-7), the IC50 on hCTR [1] (SPA binding assay, Tables S13 and S15, read-out: hCTR pIC50 (converted)) was 74.1 nM; on hCTR [1] (SPA, BHK cell membranes, 125I-Calcitonin 75 pM, 120 min 25 °C, read-out: hCTR IC50), 74.1 nM; on rCTR (SPA binding assay, Tables S13 and S15, read-out: rCTR pIC50 (converted)), 355 nM; on rCTR (SPA, BHK cell membranes, 125I-Calcitonin 75 pM, 120 min 25 °C, read-out: rCTR IC50), 356 nM. For the same compound, the EC50 at hCTR [2] (setting [4]) was 3.02 nM; on hCTR [2] (setting [5]), 3 nM.

For the compound `CC[C@H](C)[C@H](NC(=O)[C@H](C)NC(=O)CNC(=O)[C@H](Cc1ccccc1)NC(=O)[C@H](CC(N)=O)NC(=O)[C@@H]1CCCN1C(=O)[C@H](CO)NC(=O)[C@H](CO)NC(=O)[C@H](Cc1c[nH]cn1)NC(=O)[C@H](CCCNC(=N)N)NC(=O)[C@H](CC(C)C)NC(=O)[C@H](Cc1ccccc1)NC(=O)[C@H](CC(N)=O)NC(=O)[C@H](C)NC(=O)[C@H](CC(C)C)NC(=O)[C@H](CCCNC(=N)N)NC(=O)[C@H](CCC(N)=O)NC(=O)[C@@H](NC(=O)[C@H](C)NC(=O)[C@@H]1CSSC[C@H](NC(=O)[C@H](CCCCN)NC(=O)COCCOCCNC(=O)CC[C@H](NC(=O)CCCCCCCCCCCCCCCCCCC(=O)O)C(=O)O)C(=O)N[C@@H](CC(N)=O)C(=O)N[C@@H]([C@@H](C)O)C(=O)N[C@@H](C)C(=O)N[C@@H]([C@@H](C)O)C(=O)N1)[C@@H](C)O)C(=O)N1CCC[C@H]1C(=O)N[C@@H](CO)C(=O)N[C@@H](CO)C(=O)N[C@H](C(=O)N[C@@H](CC(N)=O)C(=O)N[C@H](C(=O)NCC(=O)N[C@@H](CO)C(=O)N[C@@H](Cc1c[nH]cn1)C(=O)N[C@H](C(=O)N[C@@H](Cc1ccc(O)cc1)C(N)=O)[C@@H](C)O)C(C)C)[C@@H](C)O` [Peptide 18] ({C20 diacid-γGlu-AEEA}-KCNTATCATQRLANFLRHSSPNFGAIPSSTNVGSHTY-NH2; disulfide 2-7; N-terminus assumed), the “Acute food intake reduction 24–48 h” value with rats was found to be 3 ± 6%.

For `CC[C@H](C)[C@H](NC(=O)[C@H](C)NC(=O)CNC(=O)[C@H](Cc1ccccc1)NC(=O)[C@H](CC(N)=O)NC(=O)[C@@H]1CCCN1C(=O)[C@H](CO)NC(=O)[C@H](CO)NC(=O)[C@H](Cc1c[nH]cn1)NC(=O)[C@H](CCCNC(=N)N)NC(=O)[C@H](CC(C)C)NC(=O)[C@H](Cc1ccccc1)NC(=O)[C@H](CCC(=O)O)NC(=O)[C@H](C)NC(=O)[C@H](CC(C)C)NC(=O)[C@H](CCCNC(=N)N)NC(=O)[C@H](CCC(N)=O)NC(=O)[C@@H](NC(=O)[C@H](C)NC(=O)[C@@H]1CSSC[C@H](NC(=O)[C@H](CCCCN)NC(=O)CC[C@H](NC(=O)CCCCCCCCCCCCCCCCCCC(=O)O)C(=O)O)C(=O)N[C@@H](CC(N)=O)C(=O)N[C@@H]([C@@H](C)O)C(=O)N[C@@H](C)C(=O)N[C@@H]([C@@H](C)O)C(=O)N1)[C@@H](C)O)C(=O)N1CCC[C@H]1C(=O)N[C@@H](CO)C(=O)N[C@@H](CO)C(=O)N[C@H](C(=O)N[C@@H](CC(N)=O)C(=O)N[C@H](C(=O)NCC(=O)N1CCC[C@H]1C(=O)N[C@@H](CC(N)=O)C(=O)N[C@H](C(=O)N[C@@H](Cc1ccc(O)cc1)C(N)=O)[C@@H](C)O)C(C)C)[C@@H](C)O` [Peptide 12] ({C20 diacid-γGlu}-KCNTATCATQRLAEFLRHSSPNFGAIPSSTNVGPNTY-NH2; disulfide 2-7), at hCTR [1] (setting [3]), the “hCTR pIC50” value is reported as 8.96. In addition, the EC50 on hCTR [2] (setting [4]) is 0.316 nM; at hCTR [2] (setting [5]), 0.314 nM. Further, the “rCTR pIC50” value at rCTR (setting [3]) was found to be 8.22. Also, the “Acute food intake reduction 24–48 h” value in the assay with rats is 7 ± 7%.

For the origin of these results see PMC11284788, “NN1213 – A Potent, Long-Acting, and Selective Analog of Human Amylin” (Journal of Medicinal Chemistry, 2024).
